In the NIST ThermoML archive (doi:10.1021/je400431e):

Experiment: mn = molality of the nth substance listed, in mol/kg
Conditions: 298 K, Ring tensiometer

CCCCCCCCCCCCOS(=O)(=O)[O-].[Na+] [sodium dodecyl sulfate] + O
Conditions | surface tension liquid-gas [mN/m]
m1 = 0.00013 | 66.84
m1 = 0.00031 | 60.83
m1 = 0.00102 | 52.39
m1 = 0.00303 | 45.05
m1 = 0.00501 | 40.55
m1 = 0.007 | 38.58
m1 = 0.008 | 37.41
m1 = 0.009 | 37.73
m1 = 0.01 | 37.99
m1 = 0.012 | 37.76

CCCCCCCCCCCC[N+](C)(C)C.[Cl-] [N,N,N-trimethyl-1-dodecanaminium chloride] + O
Conditions | surface tension liquid-gas [mN/m]
m1 = 3e-05 | 56.38
m1 = 5e-05 | 51.17
m1 = 7e-05 | 47.18
m1 = 0.0001 | 41.7
m1 = 0.00015 | 35.66
m1 = 0.0002 | 31.91
m1 = 0.0003 | 28.13
m1 = 0.0005 | 25.41
m1 = 0.0007 | 25.28
m1 = 0.001 | 25.68
m1 = 0.0013 | 25.4
m1 = 0.0016 | 25.52
